The test system of this experiment is L1210 leukemia ip in BDF1 mice, survival T/C. The experiment in a line: NCI In Vivo Anticancer Drug Screen. Data for tumor model L1210 Leukemia (intraperitoneal) in B6D2F1 (BDF1) mice. The note with it: endpoint: mean survival time, higher = longer survival. An outline of the steps:
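Tumor cells were implanted, animals were treated, and survival was followed. The result divides the treated measurement by the vehicle-control measurement.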

Where [1] appears, read: dose: 100.0 mg/kg/injection, schedule: Q01DX001 (ip), vehicle: saline.
Setting [2] is: dose: 200.0 mg/kg/injection, schedule: Q01DX001 (ip), vehicle: saline.
Where [3] appears, read: dose: 400.0 mg/kg/injection, schedule: Q01DX001 (ip), vehicle: saline.
Setting [4] is: dose: 100.0 mg/kg/injection, schedule: Q01DX009 (ip), vehicle: saline with Tween-80.
Setting [5] is: dose: 100.0 mg/kg/injection, schedule: Q01DX009 (ip), vehicle: saline.
[6] abbreviates: dose: 200.0 mg/kg/injection, schedule: Q01DX009 (ip), vehicle: saline with Tween-80.
The mark [7] stands for this setting: dose: 100.0 mg/kg/injection, schedule: Q04DX002 (ip), vehicle: Klucel (hydroxypropylcellulose) (HPC).
[8] abbreviates: dose: 100.0 mg/kg/injection, schedule: Q01DX009 (ip), vehicle: Klucel (hydroxypropylcellulose) (HPC).
Setting [9] is: dose: 200.0 mg/kg/injection, schedule: Q01DX009 (ip), vehicle: Klucel (hydroxypropylcellulose) (HPC).
The mark [10] stands for this setting: dose: 50.0 mg/kg/injection, schedule: Q01DX009 (ip), vehicle: saline with Tween-80.
[11] abbreviates: dose: 25.0 mg/kg/injection, schedule: Q01DX009 (ip), vehicle: saline with Tween-80.

Drawing on PubChem BioAssay AID248 (DTP/NCI, 2004), this text covers T/C for 19 molecules.

SMILES strings stand for the structures. Values joined by “and” are separate entries in the source; they are usually repeats but may differ in a detail not shown here. Identical values can stand only once. Inconclusive results and toxic doses are left out.

As for `CC(C)N=C(N)c1ccc(NC(=O)c2ccc(C(=O)Nc3ccc(C(N)=NC(C)C)cc3)cc2)cc1`, the T/C was 101 % of control (dose: 0.12 mg/kg/injection, schedule: Q01DX Z (ip), vehicle: water); 108 % of control (dose: 0.25 mg/kg/injection, schedule: Q01DX Z (ip), vehicle: water); 113 % of control (dose: 0.5 mg/kg/injection, schedule: Q01DX Z (ip), vehicle: water); 162 % of control (dose: 1.0 mg/kg/injection, schedule: Q01DX Z (ip), vehicle: water); 237 % of control (dose: 1.25 mg/kg/injection, schedule: Q01DX Z (ip), vehicle: other); 172 % of control (dose: 2.5 mg/kg/injection, schedule: Q01DX Z (ip), vehicle: other). In addition, the T/C is, setting by setting: (dose: 5.0 mg/kg/injection, schedule: Q01DX Z (ip), vehicle: other) 118 % of control; (dose: 62.0 mg/kg/injection, schedule: Q01DX Z (oral), vehicle: alkali diluted with CMC) 104 % of control; (dose: 125.0 mg/kg/injection, schedule: Q01DX Z (oral), vehicle: alkali diluted with CMC) 93 % of control; (dose: 250.0 mg/kg/injection, schedule: Q01DX Z (oral), vehicle: alkali diluted with CMC) 96 % of control; (dose: 500.0 mg/kg/injection, schedule: Q01DX Z (oral), vehicle: alkali diluted with CMC) 90 % of control.

On to `NC(CCSC(c1ccccc1)c1ccccc1)C(=O)O` (configuration not stated), for which the T/C is 101 % of control under setting [1], 97 % of control under setting [2] and 97 % of control under setting [3].

`Nc1c(Cl)ncnc1NCCCCCO`: the T/C is 100 % of control (dose: 100.0 mg/kg/injection, schedule: Q04DX003 (ip), vehicle: Klucel (hydroxypropylcellulose) (HPC)); 94 % of control (dose: 200.0 mg/kg/injection, schedule: Q04DX003 (ip), vehicle: Klucel (hydroxypropylcellulose) (HPC)); 107 % of control (dose: 400.0 mg/kg/injection, schedule: Q04DX003 (ip), vehicle: Klucel (hydroxypropylcellulose) (HPC)).

Take `O=S(=O)(Cl)c1ccccc1Cl`: the T/C (dose: 50.0 mg/kg/injection, schedule: Q01DX001 (ip), vehicle: Klucel (hydroxypropylcellulose) (HPC)) is 101 % of control.

For the molecule `COC(=O)CC(OC)OC`, the T/C was 107 % of control under setting [4]; 103 % of control under setting [5]; 89 % of control (dose: 100.0 mg/kg/injection, schedule: Q04DX003 (ip), vehicle: saline with Tween-80); 100 % of control under setting [6]; 103 % of control (dose: 200.0 mg/kg/injection, schedule: Q01DX009 (ip), vehicle: saline); 102 % of control (dose: 200.0 mg/kg/injection, schedule: Q04DX003 (ip), vehicle: saline with Tween-80). The T/C was 97 % of control (dose: 400.0 mg/kg/injection, schedule: Q01DX009 (ip), vehicle: saline with Tween-80); 105 % of control (dose: 400.0 mg/kg/injection, schedule: Q01DX009 (ip), vehicle: saline); 101 % of control (dose: 400.0 mg/kg/injection, schedule: Q04DX003 (ip), vehicle: saline with Tween-80).

For `C=CSc1ccccc1`, the T/C under setting [4] is 105 % of control and the T/C under setting [6] was 93 % of control.

`O=C(NNC(=O)c1ccccc1)c1ccccc1`: the T/C is 101 % of control under setting [7]; 101 % of control (dose: 200.0 mg/kg/injection, schedule: Q04DX002 (ip), vehicle: Klucel (hydroxypropylcellulose) (HPC)); 101 % of control (dose: 400.0 mg/kg/injection, schedule: Q04DX002 (ip), vehicle: Klucel (hydroxypropylcellulose) (HPC)).

In the case of `CC(=O)c1cccc(NC(=O)Nc2ccc(I)cc2)c1`, the T/C is 97 % of control under setting [8]; 96 % of control under setting [9]; 97 % of control (dose: 400.0 mg/kg/injection, schedule: Q01DX009 (ip), vehicle: Klucel (hydroxypropylcellulose) (HPC)).

Regarding `CCOC(=O)NC1CCc2ccccc21` (configuration not stated), the T/C under setting [1] was 98 % of control, the T/C under setting [2] was 104 % of control and the T/C under setting [3] is 93 % of control.

As to `CCCCN(CCCC)C(=N)OC1CCCCC1`, the T/C was 93 % of control (dose: 8.8 mg/kg/injection, schedule: Q01DX Z (ip), vehicle: methylcellulose (MC)); 91 % of control (dose: 13.3 mg/kg/injection, schedule: Q01DX Z (ip), vehicle: methylcellulose (MC)); 97 % of control (dose: 20.0 mg/kg/injection, schedule: Q01DX Z (ip), vehicle: methylcellulose (MC)).

With `O=C1CCCCc2cc(O)c([N+](=O)[O-])cc21`, the T/C reads like this: under setting [10], 101 % of control; under setting [4], 95 % of control.

Turning to `O=C(O)C1Cc2c([nH]c3ccccc23)C(CCCCO)N1` (configuration not stated), for the setting “dose: 100.0 mg/kg/injection, schedule: Q01DX001 (ip), vehicle: carboxymethylcellulose (CMC)”, the T/C is 96 % of control.

With `CCCCCCCCCCCCCCCCCC1=NCCN1`, the T/C (dose: 6.25 mg/kg/injection, schedule: Q01DX009 (ip), vehicle: Klucel (hydroxypropylcellulose) (HPC)) is 95 % of control; the T/C (dose: 12.5 mg/kg/injection, schedule: Q01DX009 (ip), vehicle: Klucel (hydroxypropylcellulose) (HPC)) is 87 % of control; the T/C (dose: 25.0 mg/kg/injection, schedule: Q01DX009 (ip), vehicle: Klucel (hydroxypropylcellulose) (HPC)) was 92 % of control; the T/C (dose: 25.0 mg/kg/injection, schedule: Q04DX002 (ip), vehicle: Klucel (hydroxypropylcellulose) (HPC)) was 103 % of control; the T/C (dose: 50.0 mg/kg/injection, schedule: Q01DX001 (ip), vehicle: other) was 91 % of control; the T/C (dose: 50.0 mg/kg/injection, schedule: Q04DX002 (ip), vehicle: Klucel (hydroxypropylcellulose) (HPC)) was 103 % of control. Moreover, the T/C is 97 % of control (dose: 100.0 mg/kg/injection, schedule: Q01DX001 (ip), vehicle: other); 95 % of control and 98 % of control under setting [7]; 89 % of control (dose: 200.0 mg/kg/injection, schedule: Q01DX001 (ip), vehicle: other); 97 % of control (dose: 400.0 mg/kg/injection, schedule: Q01DX001 (ip), vehicle: other).

Consider `O=C(NC(C(O)CO)C(O)C(O)CO)c1ccccc1` (configuration not stated), for which the T/C was 104 % of control (dose: 100.0 mg/kg/injection, schedule: Q04DX003 (ip), vehicle: saline); 105 % of control (dose: 200.0 mg/kg/injection, schedule: Q04DX003 (ip), vehicle: saline); 102 % of control (dose: 400.0 mg/kg/injection, schedule: Q04DX003 (ip), vehicle: saline).

On to `O=c1[nH]c2cc(Cl)ccc2c(CCl)c1Cl`, for which the T/C reads like this: under setting [11], 92 % of control; under setting [10], 94 % of control; under setting [4], 89 % of control; (dose: 100.0 mg/kg/injection, schedule: Q04DX003 (ip), vehicle: acetone) 100 % of control.

For the molecule `CNC(=O)Oc1ccc(Br)cc1Br`, the T/C is, setting by setting: under setting [8], 101 % of control; under setting [9], 100 % of control.

For `CCN(CC)C(=S)N1C(=O)C2C3CCC(O3)C2C1=O` (configuration not stated), the T/C runs as follows: (dose: 6.25 mg/kg/injection, schedule: Q01DX009 (ip), vehicle: saline with Tween-80) 97 % of control; (dose: 6.25 mg/kg/injection, schedule: Q04DX002 (ip), vehicle: saline) 107 % of control; (dose: 12.5 mg/kg/injection, schedule: Q01DX009 (ip), vehicle: saline with Tween-80) 101 % of control; (dose: 12.5 mg/kg/injection, schedule: Q04DX002 (ip), vehicle: saline) 104 % of control; under setting [11], 101 % of control; (dose: 25.0 mg/kg/injection, schedule: Q04DX002 (ip), vehicle: saline) 100 % of control.

In the case of `O=C(O)c1cc(C(=O)Nc2ccc(C3=NCCN3)cc2)c(C(=O)O)cc1C(=O)Nc1ccc(C2=NCCN2)cc1`, the T/C was 95 % of control (dose: 15.0 mg/kg/injection, schedule: Q01DX Z (ip), vehicle: carboxymethylcellulose (CMC)); 98 % of control (dose: 30.0 mg/kg/injection, schedule: Q01DX Z (ip), vehicle: carboxymethylcellulose (CMC)); 101 % of control (dose: 60.0 mg/kg/injection, schedule: Q01DX Z (ip), vehicle: carboxymethylcellulose (CMC)); 95 % of control (dose: 120.0 mg/kg/injection, schedule: Q01DX Z (ip), vehicle: carboxymethylcellulose (CMC)).

As to `CCCCCCCCC/C(C)=C1/SC(=S)NC1=O`, the T/C was 102 % of control under setting [1], 88 % of control under setting [5], 93 % of control under setting [2] and 95 % of control under setting [3].
